Reference: BigSolDB 2.1

Nc1n[nH]c(=S)s1
solubility (mole fraction)
Conditions	283.15 K	288.15 K	293.15 K	298.15 K	303.15 K	308.15 K	313.15 K	318.15 K	323.15 K
in acetone	0.0101	0.0107	0.0114	0.0121	0.0129	0.0135	0.0142	0.015	0.0158
in cyclohexanone	0.0325	0.0343	0.036	0.0378	0.0397	0.0415	0.0433	0.0449	0.0467
in ethanol	0.00402	0.00442	0.00486	0.00526	0.00578	0.00629	0.00684	0.00741	0.008
in ethyl acetate	0.00203	0.00222	0.00242	0.00263	0.0028	0.00301	0.00326	0.0035	0.00374
in isobutanol	0.00148	0.0017	0.00197	0.00225	0.00257	0.00289	0.00333	0.00376	0.0042
in isopropanol	0.00224	0.00259	0.00302	0.00351	0.00397	0.00447	0.00501	0.0057	0.0065
in methanol	0.00454	0.00505	0.00553	0.00617	0.00676	0.00737	0.00806	0.00882	0.00961
in methyl acetate	0.0022	0.00239	0.0026	0.00285	0.00308	0.00332	0.00361	0.00386	0.00411
in n-butanol	0.00216	0.00243	0.00284	0.00327	0.00372	0.00427	0.0048	0.00546	0.0061
in n-butyl acetate	0.00158	0.00172	0.00189	0.00205	0.00221	0.0024	0.0026	0.00283	0.00304
in n-propanol	0.0022	0.00259	0.00293	0.00341	0.00387	0.0043	0.00489	0.00561	0.00629
in n-propyl acetate	0.00183	0.00197	0.00212	0.00228	0.00243	0.00259	0.00278	0.00295	0.00316
in sec-butanol	0.00247	0.0029	0.00337	0.00397	0.00451	0.0051	0.00584	0.00667	0.00768
